Data: a melting point compilation (Tetko et al.; mined from patent text by program, amines drawn as free bases though some values may be those of a salt)

Structure (SMILES) | melting point
C=CCNc1nc(NC(C)(C)C)nc2ccc([N+](=O)[O-])cc12 | 139 to 140 °C
Cc1ccc(C(=O)Nc2ccc(-n3ccnc3C)c(C(F)(F)F)c2)cc1Nc1nccc(-c2cccnc2)n1 | 154 to 163 °C
NC(=O)CCCCCc1cccnc1 | 64 to 65 °C
CC[C@H](C)[C@@H](CO)NS(=O)(=O)c1ccc(Cl)c(N)c1 | 89 to 92 °C
O=C1c2ccccc2C(O)(c2ccc(F)cc2)C2=NCCCN12 (stereo not given) | 126 to 128 °C
COC1=CC(OC)(OC)CC=C1C(=O)OCC(=O)c1ccccc1 | 97 to 98 °C
O=C(NC(c1ccccc1)c1ccccc1)[C@H]1Cc2c([nH]c3ccccc23)CN1 | 191 to 196 °C
Cc1cc(-c2cnn3c(C(F)(F)F)cc(-c4ccc(Cl)c(C)c4)nc23)ccn1 | 240 °C
COC(=O)CCc1ccc(-n2cc(C)n(-c3ccc(C(=N)N)cc3)c2=O)cc1 | 95 to 100 °C
CSc1ccc(Cl)c(C(=O)Nc2ccc(-n3nc(C(F)(F)F)cc3C3CC3)cc2)c1 | 172 to 177 °C
O=C1C(c2cccn2-c2ccccc2)=CC(=O)c2ncccc21 | 132 to 134 °C
CCOC(=O)c1nnc2n1-c1sc(Cl)cc1C(c1ccccc1[N+](=O)[O-])=NC2 | 143 to 145 °C
CCCS(=O)(=O)N(COC)C(=O)c1nc(OC)cc(OC)n1 | 59 to 62 °C
Cc1cc(-n2ccnc2)c2cccc(OCc3c(Cl)ccc(S(=O)(=O)N4CCC[C@H]4C(=O)NCCc4ccccn4)c3Cl)c2n1 | 82 °C
CCOC(=O)CN(CP(=O)(OSc1cc(Cl)ccc1Cl)OSc1cc(Cl)ccc1Cl)C(=O)C(F)(F)F | 77 to 80 °C
Cc1cccc(-c2nc3cccnn3c2-c2ccnc(NC(=O)N3CCCCC3)c2)c1 | 173 to 175 °C
COc1cc(N)c(Cl)cc1-c1noc(C2CCN(CC3CCCO3)CC2)n1 (stereo not given) | 148 °C

Structure (SMILES) | melting point
COc1c(O)ccc2cc(-c3ccc(O)cc3)ccc12 | 204 to 206 °C
CN1c2ccc(-c3ccc4ccccc4c3)cc2Sc2cc(-c3ccc4ccccc4c3)ccc21 | 276 to 281 °C
CN1CN(C)c2nc3n(Cc4ccccc4)c(=O)c(Cc4ccccc4)c(O)n3c2C1=O | 176 to 179 °C
COC(C)=CC(=O)NC1CCCCCC1 | 120 °C
CC(C)NC(=O)c1ccc(N2CCC(N3C(=O)OCc4ccccc43)CC2)nc1 | > 230 °C
Brc1ccc2c(c1)OC(c1ccccc1)(c1ccccc1)O2 | 88 to 89 °C
O=c1nc(-c2nccs2)sc2ccccc12 | 229 to 230 °C
CCOC(=O)Cn1c(=S)c2cc(C)ccc2n(Cc2ccc(Cl)c(Cl)c2)c1=O | 176 to 177 °C
Cc1ccc(NC(=O)Nc2ccc(-c3c(Cc4ccccc4)sc4ncnc(N)c34)cc2)cc1 | 169 to 173 °C
CCCn1nc2c(N)nc3ccccc3c2c1CCNC(=O)NC(C)C | 197 to 198 °C
Cc1cnc2n1-c1ccc(Cl)cc1C(c1ccccc1Cl)=NC2 | 148 to 149 °C
CC(C)(C)OC(=O)N1CCc2ccc3ccn(CCO)c3c2CC1 | 226 to 229 °C
CC[C@@H](c1ccccc1)N(Cc1ccc(C(=O)O)c(F)c1F)S(=O)(=O)c1ccc(Cl)cc1 | 127 to 129 °C
Cc1cc(C)cc(OC(=O)C(Cl)c2ccccc2)c1 (stereo not given) | 79 °C
CCOC(=O)NC1CCCCn2c1nc(-c1ccncn1)c(Br)c2=O (racemic) | 72 to 74 °C
CCCOc1nc(Nc2ccc(F)c(Cl)c2)nc(NC2CCN(S(C)(=O)=O)CC2)n1 | 199 to 201 °C

Results, then the compound that gave them:

melting point | Structure (SMILES)
289 to 292 °C | Cc1cnc(-c2ccc3c(c2)c2cc(-c4ccc(Cl)cc4Cl)c(=O)n(C)c2n3C)o1
200 to 202 °C | O=C1NC(=O)C(Cc2ccc(OCCn3ccc4cccnc43)cc2)S1 (stereo not given)
191 to 192 °C | COc1cc2c(c3c1OC(C)(C)C3)C(c1ccc(=O)n(-c3ccc4ccccc4n3)c1)=NC(C)(C)C2
131 °C | CCSc1nc(=O)n(C(=O)NC)s1
165 to 167 °C | COc1cc2c(cc1OC)CN(CCCCc1ccc(NC(=O)c3ccc4ccccc4c3)cc1)CC2
76 to 77 °C | CC(C)(C)NC(=O)C(=O)c1ccccc1
140 °C | Cc1nccc(O)c1[N+](=O)[O-]
204 °C | Cc1cccc(NC(=O)NCC(=O)N(CC(=O)OC(C)(C)C)c2ccccc2Oc2ccccc2)c1
186 to 189 °C | O=C(O)CC1CCC2CC(=O)NC12 (stereo not given)
241 to 243 °C | O=C1c2ccccc2C(=O)N1CC(=O)N1c2ccc(Cl)cc2N(Cc2ccccc2)C(=O)[C@H]2CCC[C@H]21 (relative stereo)
121 to 122 °C | O=C1CCS(=O)(=O)c2sccc21
230 to 233 °C | COc1cc(-c2cn3cccnc3n2)ccc1O
307 to 309 °C | COc1cc(C2C3=C(COC3=O)Nc3ccc4cn[nH]c4c32)ccc1F (stereo not given)
140 °C | O=S1NC(Cc2coc3ccc(Cl)cc23)=NO1 (stereo not given)
96 °C | Nc1cc(C(F)(F)F)cc(N)c1Cl
127 to 128 °C | CC(C)(C)c1cc2c(c(C(C)(C)C)c1)OC(=O)C2c1ccc(C(F)(F)F)cc1 (stereo not given)
113 to 115 °C | O=C(NCc1ccccc1)c1ccc2cnccc2n1
42 to 43 °C | CCCc1ccc(CCCCCCCC(=O)O)cc1
251 °C | O=C(NN1CCCCC1)c1ccc(N2CCN(C(=O)N3CCC(c4cn[nH]c4)C3)c3ccccc32)cc1 (stereo not given)

melting point | Structure (SMILES)
299 to 300 °C | Fc1ccc2c(c1)Oc1ccccc1-c1nc(S)[nH]c1-2
122 to 125 °C | CS(=O)Cc1cc(C(F)(F)F)ccc1N (stereo not given)
111 °C | O=S1(=O)c2cccc3cccc(c23)N1CCCN1CCC(c2ccc(Cl)cc2)CC1
84 to 86 °C | CCOc1ccc(CCN(C(=O)O)C(=O)[C@H](C)NC(C)=O)cc1OCC
188 to 189 °C | CC(C)NC(=O)C1=C(C(=O)Nc2ccc(Cl)cc2F)CCCC1
170 to 173 °C | COC(=O)[C@H](Cc1ccc(-c2c(C)cc(C(F)(F)F)n(C)c2=O)cc1)NC(=O)c1c(Cl)cccc1Cl
102 to 104 °C | COCCCn1nnnc1-c1cc(-c2cc(C(C)C)ccc2OC)c(OCc2ccccc2)cc1OCc1ccccc1
139 to 140 °C | COc1cccc(C(=O)O)c1OC(C)=O
276 to 280 °C | Nc1c(Cl)cccc1NC(=S)Nc1cscc1Cl
162 to 163 °C | CC(=O)CCc1cc(-c2ccncc2)sc1-c1ccncc1
193 to 194 °C | COC(=O)C1=NNC(C)=C(C(=O)OC)C1c1cc([N+](=O)[O-])ccc1Cl (stereo not given)
195 to 197 °C | Fc1ccc(Nc2ncnc3ccc(-c4ccsc4)cc23)cc1Cl
208 to 209 °C | CC(C)c1ccc(-c2cc(-c3cccc(C(=O)O)c3)cs2)cc1
223 to 225 °C | N#Cc1ccc2c(O)c(C(=O)NCCCCN3CCN(C(c4ccccc4)c4ccccc4)CC3)cnc2c1
150 to 152 °C | O=C(c1cccn1N1C(=O)c2ccccc2C1=O)C1CC1
115 to 118 °C | COC(=O)CC1CCN(C(=O)N2CCC(c3ccc(C#N)cc3)CC2)CC1
233 to 234 °C | Cc1nc(-n2cnn(Cc3c(C)noc3C)c2=O)sc1C(=O)NCc1cccnc1
144 to 146 °C | CC(=O)Nc1ccnn1-c1c(F)cc(C(F)(F)F)cc1Cl
